Test results: patent US7056941B1 (priority 1997, dated 2006)

Structure (SMILES): Cc1nn(C)c(=O)n1-c1ccccc1COc1ccn(-c2ccc(Cl)cc2)n1
- melting point: 107 to 109 °C
